What follows are molecules tested on Streptococcus pneumoniae ATCC49619 (assay: Antimicrobial activity assay (MIC, broth microdilution, CAMHB with 5% horse serum)).
Assay type: cell-based
Procedure: (§1) Antimicrobial Activity Assay
(§2) The antibacterial activity of compounds is determined by the minimal inhibitory concentration (MIC) method. MICs for all bacteria except pneumococci and Haemophilus influenzae are obtained by broth microdilution with cation-adjusted Mueller-Hinton broth (CAMHB; BBL), according to CLSI guidelines (National Committee for Clinical Laboratory Standards. 2003. Methods for dilution antimicrobial susceptibility tests for bacteria that grow aerobically, 5th ed.; a approved standard M7-A6. National Committee for Clinical Laboratory Standards, Wayne, Pa.), with the following modifications: (i) for pneumococci CAMHB is supplemented with 5% (^v/v) horse serum; (ii) for Haemophilus influenzae CAMHB is supplemented with 5% (^v/v) Fildes enrichment (BBL) (Pankuch, G. A., Hoellman, D. B., Lin, G., Bajaksouzian, S., Jacobs, M. R., and Appelbaum, P. C. 1998. Activity of HMR 3647 compared to those of five agents against Haemophilus influenzae and Moraxella catarrhalis by MIC determination and time-kill assay. Antimicrob. Agents Chemother. 42:3032-3034). Microtiter plates are incubated at 35° C. in ambient air for 20 to 24 h, then inspected using an illuminated microtiter plate reader fitted with a magnifying mirror (MIC 2000; Cooke Laboratory Products, Alexandria, Va.). Compounds of the present invention are tested against several bacteria strains comprising some Acinetobacter baumannii, Enterococcus faecalis, Enterococcus faecium, Escherichia coli, Haemophilus influenzae, Klebsiella pneumoniae, Pseudomonas aeruginosa, Staphylococcus aureus, Staphylococcus epidermidis, Streptococcus pyogenes; Enterobacter cloacae and Streptococcus pneumoniae.

| MIC | SMILES |
| --- | --- |
| ≤ 8 µg/mL | COc1ccc2ncc3c(c2n1)CC(CN1CCC(NC(=O)c2ccc4c(c2)NC(=O)CS4)CC1)CO3 (stereo not drawn) [Example 1, 3-oxo-3,4-dihydro-2H-benzo[1,4]thiazine-6-carboxylic acid [1-(6-methoxy-3,4-dihydro-2H-1-oxa-5,9-diaza-phenanthren-3-ylmethyl)-piperidin-4-yl]-amide] |
| ≤ 8 µg/mL | COc1ccc2ncc3c(c2n1)CC(CN1CCC(NC(=O)c2ccc4c(c2)NC(=O)CS4)CC1)O3 (stereo not drawn) [Example 54, 3-oxo-3,4-dihydro-2H-benzo[1,4]thiazine-6-carboxylic acid [1-(8-methoxy-1,2-dihydro-3-oxa-5,9-diaza-cyclopenta[a]naphthalen-2-ylmethyl)-piperidin-4-yl]-amide] |
| ≤ 8 µg/mL | COc1ccc2ncc3c(c2c1F)CC(CN1CCC(NC(=O)c2ccc4c(c2)NC(=O)CS4)CC1)CO3 (stereo not drawn) [Example 45, 3-oxo-3,4-dihydro-2H-benzo[1,4]thiazine-6-carboxylic acid [1-(5-fluoro-6-methoxy-3,4-dihydro-2H-1-oxa-9-aza-phenanthren-3-ylmethyl)-piperidin-4-yl]-amide] |
| ≤ 8 µg/mL | COc1ccc2ncc3c(c2c1)CC(C[C@H]1CC[C@H](NC(=O)c2ccc4c(c2)NC(=O)CO4)CC1)CO3 (relative stereo) [Example 36, 3-oxo-3,4-dihydro-2H-benzo[1,4]oxazine-6-carboxylic acid [trans-4-(6-methoxy-3,4-dihydro-2H-1-oxa-9-aza-phenanthren-3-ylmethyl)-cyclohexyl]-amide] |
| ≤ 8 µg/mL | COc1ccc2ncc3c(c2c1)CC(CN1CC(NC(=O)c2ccc4c(c2)NC(=O)CS4)C1)CS3 (stereo not drawn) [Example 49, 3-oxo-3,4-dihydro-2H-benzo[1,4]thiazine-6-carboxylic acid [1-(6-methoxy-3,4-dihydro-2H-1-thia-9-aza-phenanthren-3-ylmethyl)-azetidin-3-yl]-amide] |
| ≤ 8 µg/mL | COc1ccc2ncc3c(c2c1)CC(CN1CC(NC(=O)c2ccc4c(c2)NC(=O)CS4)CC1CO)CS3 (stereo not drawn) [Example 51, 3-oxo-3,4-dihydro-2H-benzo[1,4]thiazine-6-carboxylic acid [5-hydroxymethyl-1-(6-methoxy-3,4-dihydro-2H-1-thia-9-aza-phenanthren-3-ylmethyl)-pyrrolidin-3-yl]-amide] |
| ≤ 8 µg/mL | COc1ccc2ncc3c(c2c1)CC(C(O)[C@H]1CC[C@H](NC(=O)c2ccc4c(c2)NC(=O)CS4)CC1)O3 (relative stereo) [Example 59, 3-oxo-3,4-dihydro-2H-benzo[1,4]thiazine-6-carboxylic acid {trans-4-[hydroxy-(8-methoxy-1,2-dihydro-furo[2,3-c]quinolin-2-yl)-methyl]-cyclohexyl}-amide] |
| ≤ 8 µg/mL | COc1ccc2ncc3c(c2c1)CC(CN1CCC(NC(=O)c2ccc4c(c2)NC(=O)CS4)CC1)O3 (stereo not drawn) [Example 55, 3-oxo-3,4-dihydro-2H-benzo[1,4]thiazine-6-carboxylic acid [1-(8-methoxy-1,2-dihydro-furo[2,3-c]quinolin-2-ylmethyl)-piperidin-4-yl]-amide] |
| ≤ 8 µg/mL | COc1ccc2ncc3c(c2c1)CC(CN1CCC(NCc2ccc4c(c2)NC(=O)CS4)CC1)CO3 (stereo not drawn) [Example 34, 6-{[1-(6-methoxy-3,4-dihydro-2H-1-oxa-9-aza-phenanthren-3-ylmethyl)-piperidin-4-ylamino]-methyl}-4H-benzo[1,4]thiazin-3-one] |
| ≤ 8 µg/mL | COc1ccc2ncc3c(c2c1)OC(CN1CC(NC(=O)c2ccc4c(c2)NC(=O)CS4)C1)C3 (stereo not drawn) [Example 39, 3-oxo-3,4-dihydro-2H-benzo[1,4]thiazine-6-carboxylic acid [1-(8-methoxy-2,3-dihydro-furo[3,2-c]quinolin-2-ylmethyl)-azetidin-3-yl]-amide] |
| ≤ 8 µg/mL | COc1ccc2ncc3c(c2c1)CC(Cn1cc(NC(=O)c2ccc4c(c2)NC(=O)CS4)cn1)CO3 (stereo not drawn) [Example 31, 3-oxo-3,4-dihydro-2H-benzo[1,4]thiazine-6-carboxylic acid [1-(6-methoxy-3,4-dihydro-2H-1-oxa-9-aza-phenanthren-3-ylmethyl)-1H-pyrazol-4-yl]-amide] |

These molecules were tested on Escherichia coli ATCC25922 (assay: Antimicrobial activity assay (MIC, broth microdilution)).
Assay type: cell-based
Procedure: as §1
as §2, with “Compounds of the present invention are tested against several bacteria strains comprising some Acinetobacter baumannii, Enterococcus faecalis, Enterococcus faecium, Escherichia coli, Haemophilus influenzae, Klebsiella pneumoniae, Pseudomonas aeruginosa, Staphylococcus aureus, Staphylococcus epidermidis, Streptococcus pyogenes; Enterobacter cloacae and Streptococcus pneumoniae.” left out

| MIC | SMILES |
| --- | --- |
| ≤ 8 µg/mL | COc1ccc2ncc3c(c2n1)CC(CN1CCC(NC(=O)c2ccc4c(c2)NC(=O)CS4)CC1)CO3 (stereo not drawn) [Example 1, 3-oxo-3,4-dihydro-2H-benzo[1,4]thiazine-6-carboxylic acid [1-(6-methoxy-3,4-dihydro-2H-1-oxa-5,9-diaza-phenanthren-3-ylmethyl)-piperidin-4-yl]-amide] |
